# Assay results as given in US8829034B2, “Compounds which modulate the CB2 receptor” (Boehringer Ingerlheim International GmbH, priority 2006, dated 2014).
# pEC50: −log10 of the molar value.
# Molecular target: T1, human CB2R (Homo sapiens, UniProt P34972)
# T1 construct: host or cells: CHO cells
# Assay: CB2R mediated modulation of cAMP synthesis
# Format: cell-based
# Conditions: for agonistic activity: found through the use of the above described assays
# Protocol: B. CB2R Mediated Modulation of cAMP Synthesis:
# CHO cells expressing human CB2R (Euroscreen) were plated at a density of 5000 cells per well in 384 well plates and incubated overnight at 37° C. After removing the media, the cells were treated with test compounds diluted in stimulation buffer containing 1 mM IBMX, 0.25% BSA and 10 uM Forskolin. The assay was incubated for 30 minutes at 37° C. Cells were lysed and the cAMP concentration was measured using DiscoverX-XS cAMP kit, following the manufacturer's protocol. In this setting, agonists will decrease forskolin induced production of cAMP while inverse agonists will further increase forskolin induced production of cAMP. EC50 of agonists were calculated as follows. The maximal amount of cAMP produced by forskolin compared to the level of cAMP inhibited by 1 uM CP55940 is defined as 100%. The EC50 value of each test compound was determined as the concentration at which 50% of the forskolin-stimulated cAMP synthesis was inhibited. Data was analyzed using a four-parameter logistic model. (Model 205 of XLfit 4.0).
# T1 sequence (P34972 whole entry): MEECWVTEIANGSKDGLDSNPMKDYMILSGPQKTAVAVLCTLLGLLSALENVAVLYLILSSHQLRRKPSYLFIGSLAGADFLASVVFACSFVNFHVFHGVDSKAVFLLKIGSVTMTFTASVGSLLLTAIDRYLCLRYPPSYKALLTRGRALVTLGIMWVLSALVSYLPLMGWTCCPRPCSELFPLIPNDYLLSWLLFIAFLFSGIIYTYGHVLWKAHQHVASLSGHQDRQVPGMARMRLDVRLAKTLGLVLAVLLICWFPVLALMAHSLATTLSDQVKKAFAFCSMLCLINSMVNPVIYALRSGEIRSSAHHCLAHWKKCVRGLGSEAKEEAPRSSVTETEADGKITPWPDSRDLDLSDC
Compound,pEC50,agonistic activity
CC(C)(C(=O)Nc1nc(-c2ccc(Cl)cc2)cs1)S(=O)(=O)C1CCCC1 [N-[4-(4-Chloro-phenyl)-thiazol-2-yl]-2-cyclopentanesulfonyl-2-methyl-propionamide],8.82,agonistic activity
CCC(C)S(=O)(=O)C(C)(C)C(=O)Nc1cc(C(C)(C)C)no1 (stereo not drawn) [2-(Butane-2-sulfonyl)-N-(3-tert-butyl-isoxazol-5-yl)-2-methyl-propionamide],8.48,agonistic activity
CC(C)(C)c1cc(NC(=O)C(C)(C)S(=O)(=O)CC2CCC2)no1 [N-(5-tert-Butyl-isoxazol-3-yl)-2-cyclobutylmethanesulfonyl-2-methyl-propionamide],8.47,agonistic activity
CC(C)(C)c1cc(NC(=O)C(C)(C)S(=O)(=O)CC2CCOCC2)no1 [N-(5-tert-Butyl-isoxazol-3-yl)-2-methyl-2-(tetrahydro-pyran-4-ylmethanesulfonyl)-propionamide],,agonistic activity
Cn1nc(C(C)(C)C)cc1NC(=O)C(C)(C)S(=O)(=O)C[C@@H]1CCC(=O)N1 [N-(5-tert-Butyl-2-methyl-2H-pyrazol-3-yl)-2-methyl-2-((S)-5-oxo-pyrrolidin-2-ylmethanesulfonyl)-propionamide],,agonistic activity
CCC(C)c1cc(NC(=O)C(C)(C)S(=O)(=O)CC2CCOCC2)on1 (stereo not drawn) [N-(3-sec-Butyl-isoxazol-5-yl)-2-methyl-2-(tetrahydro-pyran-4-ylmethanesulfonyl)-propionamide],7.70,agonistic activity
"CC(C)(C(=O)Nc1nnc(-c2ccccc2)[nH]1)S(=O)(=O)CC1CCOCC1 [2-Methyl-N-(5-phenyl-4H-1,2,4-triazol-3-yl)-2-(tetrahydro-pyran-4-ylmethanesulfonyl)-propionamide]",8.77,agonistic activity
CC(C)(C(=O)Nc1ccc(C(F)(F)F)cn1)S(=O)(=O)CC1CCCCO1 (stereo not drawn) [2-Methyl-2-(tetrahydro-pyran-2-ylmethanesulfonyl)-N-(5-trifluoromethyl-pyridin-2-yl)-propionamide],,agonistic activity
CC(C)(C(=O)Nc1nc(-c2cccnc2)cs1)S(=O)(=O)CC1CCOCC1 [2-Methyl-N-(4-pyridin-3-yl-thiazol-2-yl)-2-(tetrahydro-pyran-4-ylmethanesulfonyl)-propionamide],,agonistic activity
"CC(C)(C(=O)Nc1nnc(-c2ccccc2)[nH]1)S(=O)(=O)C1CCCC1 [2-Cyclopentanesulfonyl-2-methyl-N-(5-phenyl-4H-1,2,4-triazol-3-yl)-propionamide]",8.42,agonistic activity
CC(C)S(=O)(=O)C(C)(C)C(=O)Nc1nc(-c2ccc(Cl)cc2)cs1 [N-[4-(4-Chloro-phenyl)-thiazol-2-yl]-2-methyl-2-(propane-2-sulfonyl)-propionamide],7.35,agonistic activity
Cc1nc(NC(=O)C(C)(C)S(=O)(=O)C(C)C)sc1C(C)(C)C [N-(5-tert-Butyl-4-methyl-thiazol-2-yl)-2-methyl-2-(propane-2-sulfonyl)-propionamide],7.59,agonistic activity
CC(C)(C(=O)Nc1ccc(C(F)(F)F)cn1)S(=O)(=O)CC1CCCCC1 [2-Cyclohexylmethanesulfonyl-2-methyl-N-(5-trifluoromethyl-pyridin-2-yl)-propionamide],7.81,agonistic activity
Cn1nc(-c2ccccc2)cc1NC(=O)C(C)(C)S(=O)(=O)CC1CCOCC1 [2-Methyl-N-(2-methyl-5-phenyl-2H-pyrazol-3-yl)-2-(tetrahydro-pyran-4-ylmethanesulfonyl)-propionamide],,agonistic activity
CC(C)CS(=O)(=O)C(C)(C)C(=O)Nc1cc(C(C)(C)C)no1 [N-(3-tert-Butyl-isoxazol-5-yl)-2-methyl-2-(2-methyl-propane-1-sulfonyl)-propionamide],8.80,agonistic activity
CC(C)(C)c1cc(NC(=O)C(C)(C)S(=O)(=O)CC2CC2)on1 [N-(3-tert-Butyl-isoxazol-5-yl)-2-cyclopropylmethanesulfonyl-2-methyl-propionamide],7.90,agonistic activity
CCCS(=O)(=O)C(C)(C)C(=O)Nc1cnc2ccccc2c1 [2-Methyl-2-(propane-1-sulfonyl)-N-quinolin-3-yl-propionamide],,agonistic activity
"CCCS(=O)(=O)C(C)(C)C(=O)Nc1c(C)c(-c2ccccc2)nn1C [N-(2,4-Dimethyl-5-phenyl-2H-pyrazol-3-yl)-2-methyl-2-(propane-1-sulfonyl)-propionamide]",,agonistic activity

Compound,pEC50,agonistic activity
CCCS(=O)(=O)C(C)(C)C(=O)Nc1cccc(C(C)(C)C)c1 [N-(3-tert-Butyl-phenyl)-2-methyl-2-(propane-1-sulfonyl)-propionamide],,agonistic activity
CC(C)(C)c1cc(NC(=O)C(C)(C)S(=O)(=O)CC2CCNCC2)no1 [N-(5-tert-Butyl-isoxazol-3-yl)-2-methyl-2-(piperidin-4-ylmethanesulfonyl)-propionamide],,agonistic activity
CC(C)(C)c1cc(NC(=O)C(C)(C)S(=O)(=O)CC2CCCCO2)no1 (stereo not drawn) [N-(5-tert-Butyl-isoxazol-3-yl)-2-methyl-2-(tetrahydro-pyran-2-ylmethanesulfonyl)-propionamide],9.70,agonistic activity
CC(C)(C(=O)Nc1nc(C2CCCCC2)cs1)S(=O)(=O)CC1CCOCC1 [N-(4-Cyclohexyl-thiazol-2-yl)-2-methyl-2-(tetrahydro-pyran-4-ylmethanesulfonyl)-propionamide],8.08,agonistic activity
"CC(C)(C)C(=O)CS(=O)(=O)C(C)(C)C(=O)Nc1cc(C(C)(C)C)on1 [N-(5-tert-Butyl-isoxazol-3-yl)-2-(3,3-dimethyl-2-oxo-butane-1-sulfonyl)-2-methyl-propionamide]",7.40,agonistic activity
CC(C)CCS(=O)(=O)C(C)(C)C(=O)Nc1cc(C(C)(C)C)on1 [N-(5-tert-Butyl-isoxazol-3-yl)-2-methyl-2-(3-methyl-butane-1-sulfonyl)-propionamide],9.70,agonistic activity
CC(C)S(=O)(=O)C(C)(C)C(=O)Nc1nc(-c2ccccn2)cs1 [2-Methyl-2-(propane-2-sulfonyl)-N-(4-pyridin-2-yl-thiazol-2-yl)-propionamide],,agonistic activity
CC(C)(C(=O)Nc1cccc2ccccc12)S(=O)(=O)CC1CCOCC1 [2-Methyl-N-naphthalen-1-yl-2-(tetrahydro-pyran-4-ylmethanesulfonyl)-propionamide],,agonistic activity
CC(C)(C)c1cc(NC(=O)C(C)(C)S(=O)(=O)CC2CCC2)on1 [N-(3-tert-Butyl-isoxazol-5-yl)-2-cyclobutylmethanesulfonyl-2-methyl-propionamide],8.43,agonistic activity
"CC(C)S(=O)(=O)C(C)(C)C(=O)Nc1nc2c(s1)CCCC2 [2-Methyl-2-(propane-2-sulfonyl)-N-(4,5,6,7-tetrahydro-benzothiazol-2-yl)-propionamide]",,agonistic activity
"CC(C)(C(=O)Nc1nc(-c2ccccc2)ns1)S(=O)(=O)CC1CCOCC1 [2-Methyl-N-(3-phenyl-1,2,4-thiadiazol-5-yl)-2-(tetrahydro-pyran-4-ylmethanesulfonyl)-propionamide]",,agonistic activity
CC(C)S(=O)(=O)C(C)(C)C(=O)Nc1cccc(C(F)(F)F)n1 [2-Methyl-2-(propane-2-sulfonyl)-N-(6-trifluoromethyl-pyridin-2-yl)-propionamide],,agonistic activity
CC(C)S(=O)(=O)C(C)(C)C(=O)Nc1nc(-c2ccccc2)cs1 [2-Methyl-N-(4-phenyl-thiazol-2-yl)-2-(propane-2-sulfonyl)-propionamide],,agonistic activity
"CC(C)(C)Cc1cc(NC(=O)C(C)(C)S(=O)(=O)CC2CCOCC2)on1 [N-[3-(2,2-Dimethyl-propyl)-isoxazol-5-yl]-2-methyl-2-(tetrahydro-pyran-4-ylmethanesulfonyl)-propionamide]",7.13,agonistic activity
Cn1nc(C(C)(C)C)cc1NC(=O)C(C)(C)S(=O)(=O)CC1CCCCC1 [N-(5-tert-Butyl-2-methyl-2H-pyrazol-3-yl)-2-cyclohexylmethanesulfonyl-2-methyl-propionamide],7.62,agonistic activity
CC(C)(C)c1csc(NC(=O)C(C)(C)S(=O)(=O)C(C)(C)C)n1 [N-(4-tert-Butyl-thiazol-2-yl)-2-methyl-2-(2-methyl-propane-2-sulfonyl)-propionamide],7.21,agonistic activity
CC(C)(C)c1cc(NC(=O)C(C)(C)S(=O)(=O)C2CCCC2)no1 [N-(5-tert-Butyl-isoxazol-3-yl)-2-cyclopentanesulfonyl-2-methyl-propionamide],8.62,agonistic activity
Cn1nc(C(C)(C)C)cc1NC(=O)C(C)(C)S(=O)(=O)CC1CCC1 [N-(5-tert-Butyl-2-methyl-2H-pyrazol-3-yl)-2-cyclobutylmethanesulfonyl-2-methyl-propionamide],7.48,agonistic activity
